The text below walks through data of publication PMC7926726, “The Wound Healing Peptide, AES16-2M, Ameliorates Atopic Dermatitis In Vivo” (Molecules, 2021).

Ends that are not written are not given here.

The nature of the series: Water solubility of the peptide. Format: physicochemical. To be noted: in water; analysed by Anygen; previously described [16] and updated in this study. The procedure: To investigate whether the wound healing peptide, AES16-2M, could improve AD, Dermatophagoides farina (Df) body-induced AD model was established, and 10 mg/kg of AES16-2M was used as the optimal dose determined by preliminary experiments. […] Since increased IgE and TSLP production is closely related to AD pathology, the total IgE levels from sera were determined.
AES16-2M was synthesized and analyzed for purity, water solubility, and molecular weight by Anygen (Gwang Ju, Korea). Peptide with purity over 95% was used for this study.

In the case of REGRT [AES16-2M], the water solubility entry is “over 10.0 mg/mL”.
